# Read-outs that look alike come from different tables or passages of the source.
# How the values were obtained:
# [1] = tested on: HT-29; assay: Cytotoxicity test (MTT, 72 h); conditions: Homo sapiens, HT-29, 72 h, read-out: 50% Inhibiting Concentration value (IC50)
# Description: (§1) Cells at logarithmic growth period are inoculated in a 96-well plate overnight, then drugs with a certain gradient concentrations are added, and incubation is carried out in a cell culture chamber (5% CO2, 37° C.) for 72 h.
# [2] = tested on: tumor; assay: Multi-dose in vivo antitumor activity, tumor volume (Example 20); set-up: species or system mice; conditions: for Mouse Tumor Volume: caudal vein once every 2 days
# Description: The drugs are administered through the caudal veins of mice once every 2 days for a total of 7 times.
# Tumor volume is measured every three days from day 0. The maximum diameter (a) of the tumor is measured first, and then the longest radial line (b) perpendicular to the maximum diameter is measured, using mm as unit. Tumor volume is calculated according to the following formula: […]
# [3] = tested on: PANC-1; assay: Cytotoxicity test (MTT, 72 h); conditions: Homo sapiens, PANC-1, 72 h, read-out: 50% Inhibiting Concentration value (IC50)
# Description: as §1
# [4] = In vivo antitumor activity study, mouse weight (Example 19); set-up: species or system mice; conditions: 12.30 mg/kg i.v. once every three days
# [5] = tested on: ECA-109; assay: Cytotoxicity test (MTT, 72 h); conditions: Homo sapiens, ECa-109, 72 h, read-out: 50% Inhibiting Concentration value (IC50)
# Description: (§2) In order to investigate the antitumor activities of the compounds, a variety of tumor cell lines for test are selected. Cells at logarithmic growth period are inoculated in a 96-well plate overnight, then drugs with a certain gradient concentrations are added, and incubation is carried out in a cell culture chamber (5% CO2, 37° C.) for 72 h.
# [6] = tested on: colon cancer cells SW-480; assay: In vivo antitumor activity, tumor volume (Example 19); set-up: species or system mice; conditions: for Mouse Tumor Volume: 12.30 mg/kg i.v. once every three days, average, n = 6
# [7] = tested on: MDA-MB-231; assay: Cytotoxicity test (MTT, 72 h); conditions: Homo sapiens, MDA-MB-231, 72 h, read-out: 50% Inhibiting Concentration value (IC50)
# Description: as §2
# [8] = tested on: HCT-116; assay: Cytotoxicity test (MTT, 72 h); conditions: Homo sapiens, HCT-116, 72 h, read-out: 50% Inhibiting Concentration value (IC50)
# Description: as §2
# [9] = tested on: PC3; assay: Cytotoxicity test (MTT, 72 h); conditions: Homo sapiens, PC-3, 72 h, read-out: 50% Inhibiting Concentration value (IC50)
# Description: as §2
# [10] = tested on: K562; assay: Cytotoxicity test (MTT, 72 h); conditions: Homo sapiens, K562, 72 h, read-out: 50% Inhibiting Concentration value (IC50)
# Description: as §2
# [11] = tested on: A549; assay: Cytotoxicity test (MTT, 72 h); conditions: Homo sapiens, A549, 72 h, read-out: 50% Inhibiting Concentration value (IC50)
# Description: as §2
# [12] = tested on: H1975; assay: Cytotoxicity test (MTT, 72 h); conditions: Homo sapiens, NCI-H1975, 72 h, read-out: 50% Inhibiting Concentration value (IC50)
# Description: as §2
# [13] = tested on: Hela; assay: Cytotoxicity test (MTT, 72 h); conditions: Homo sapiens, read-out: 50% Inhibiting Concentration value (IC50)
# Description: as §2
# [14] = tested on: SW-480; assay: Cytotoxicity test (MTT, 72 h); conditions: Homo sapiens, SW480, 72 h, read-out: 50% Inhibiting Concentration value (IC50)
# Description: as §1
# [15] = Solubility test, equilibrium method, UV-visible spectrophotometry; format: physicochemical; conditions: thermodynamic from solid
# How it was run: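 Equilibrium solubility measured by UV-visible spectrophotometry. Reference solution of known concentration (C0) prepared in methanol; test concentration calculated as Cx=(Ax/A0)C0 from absorbance ratio of test to reference solution.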
# [16] = tested on: 143B; assay: Cytotoxicity test (MTT, 72 h); conditions: Homo sapiens, read-out: 50% Inhibiting Concentration value (IC50)
# Description: as §2
# [17] = tested on: TPC-1; assay: Cytotoxicity test (MTT, 72 h); conditions: Homo sapiens, TPC1, 72 h, read-out: 50% Inhibiting Concentration value (IC50)
# Description: as §1
# [18] = tested on: SKOV-3; assay: Cytotoxicity test (MTT, 72 h); conditions: Homo sapiens, SK-OV-3, 72 h, read-out: 50% Inhibiting Concentration value (IC50)
# Description: as §1
structure (smiles),measurement,setting,value
CCc1c2c(nc3ccc(OC(=O)NCCOCc4cn(CCO[C@H]5O[C@@H](CO)[C@H](O)[C@@H](O)[C@@H]5O)nn4)cc13)-c1cc3c(c(=O)n1C2)COC(=O)[C@]3(O)CC [Compound 67],IC50,[1],5.19 µM
same,Mouse Tumor Volume,"[2]; day 0, high-dose group (H) 12.30 mg/kg",121.62 mm^3
same,Mouse Tumor Volume,"[2]; day 0, low-dose group (L) 3.075 mg/kg",125.58 mm^3
same,Mouse Tumor Volume,"[2]; day 0, medium-dose group (M) 6.15 mg/kg",161.01 mm^3
same,Mouse Tumor Volume,"[2]; day 3, high-dose group (H) 12.30 mg/kg",91.15 mm^3
same,Mouse Tumor Volume,"[2]; day 3, low-dose group (L) 3.075 mg/kg",194.43 mm^3
same,Mouse Tumor Volume,"[2]; day 3, medium-dose group (M) 6.15 mg/kg",168.50 mm^3
same,Mouse Tumor Volume,"[2]; day 6, high-dose group (H) 12.30 mg/kg",96.67 mm^3
same,Mouse Tumor Volume,"[2]; day 6, low-dose group (L) 3.075 mg/kg",197.42 mm^3
same,Mouse Tumor Volume,"[2]; day 6, medium-dose group (M) 6.15 mg/kg",208.68 mm^3
same,Mouse Tumor Volume,"[2]; day 9, high-dose group (H) 12.30 mg/kg",103.36 mm^3
same,Mouse Tumor Volume,"[2]; day 9, low-dose group (L) 3.075 mg/kg",278.06 mm^3
same,Mouse Tumor Volume,"[2]; day 9, medium-dose group (M) 6.15 mg/kg",220.90 mm^3
same,Mouse Tumor Volume,"[2]; day 12, high-dose group (H) 12.30 mg/kg",110.74 mm^3
same,Mouse Tumor Volume,"[2]; day 12, low-dose group (L) 3.075 mg/kg",420.38 mm^3
same,Mouse Tumor Volume,"[2]; day 12, medium-dose group (M) 6.15 mg/kg",295.90 mm^3
same,Mouse Tumor Volume,"[2]; day 15, high-dose group (H) 12.30 mg/kg",133.88 mm^3
same,Mouse Tumor Volume,"[2]; day 15, low-dose group (L) 3.075 mg/kg",498.90 mm^3
same,Mouse Tumor Volume,"[2]; day 15, medium-dose group (M) 6.15 mg/kg",378.20 mm^3
same,Mouse Tumor Volume,"[2]; day 18, high-dose group (H) 12.30 mg/kg",116.64 mm^3
same,Mouse Tumor Volume,"[2]; day 18, low-dose group (L) 3.075 mg/kg",587.60 mm^3
same,Mouse Tumor Volume,"[2]; day 18, medium-dose group (M) 6.15 mg/kg",404.02 mm^3
same,Mouse Tumor Volume,"[2]; day 21, high-dose group (H) 12.30 mg/kg",103.48 mm^3
same,Mouse Tumor Volume,"[2]; day 21, low-dose group (L) 3.075 mg/kg",624.45 mm^3
same,Mouse Tumor Volume,"[2]; day 21, medium-dose group (M) 6.15 mg/kg",394.44 mm^3
same,tumor inhibition effects of the high-dose groups compared with CPT-11 (in words),"[2]; high-dose groups, same dosage (10 mg/kg), p<0.001",better than that of positive control group CPT-11
same,dose dependence of tumor inhibition (in words),"[2]; low, medium and high dose",dose-dependent
same,IC50,[3],2910 nM
same,Mouse Weight,[4]; day 0,23.97 g
same,Mouse Weight,[4]; day 3,23.97 g
same,Mouse Weight,[4]; day 6,23.57 g
same,Mouse Weight,[4]; day 9,23.94 g
same,Mouse Weight,[4]; day 12,23.58 g
same,Mouse Weight,[4]; day 15,24.45 g
same,Mouse Weight,[4]; day 18,24.86 g
same,Mouse Weight,[4]; day 21,25.33 g
same,IC50,[5],4.32 µM
same,Mouse Tumor Volume,[6]; day 0,227.31 mm^3
same,Mouse Tumor Volume,[6]; day 3,126.54 mm^3
same,Mouse Tumor Volume,[6]; day 6,142.84 mm^3
same,Mouse Tumor Volume,[6]; day 9,104.75 mm^3
same,Mouse Tumor Volume,[6]; day 12,73.72 mm^3
same,Mouse Tumor Volume,[6]; day 15,43.74 mm^3
same,Mouse Tumor Volume,[6]; day 18,12.46 mm^3
same,Mouse Tumor Volume,[6]; day 21,11.38 mm^3
same,inhibition rates on colon cancer cell SW-480 compared with CPT-11 (in words),[6]; dosage two-thirds of the molar fraction of CPT-11,significantly higher inhibition rates
same,IC50,[7],876 nM
same,IC50,[8],235 nM
same,IC50,[9],2020 nM
same,IC50,[10],196 nM
same,IC50,[11],2420 nM
same,IC50,[12],6.73 µM
same,IC50,[13],2910 nM
same,IC50,[14],251 nM
same,solubility,"[15]; aqueous buffer, PBS pH 7.4, read-out: Solubility in PBS (pH = 7.4)",2110 µg/mL
same,solubility,"[15]; aqueous with cosolvent or surfactant or cyclodextrin, 0.1% aqueous solution of Tween-80, read-out: Solubility in 0.1% Tween-80",1480 µg/mL
same,solubility,"[15]; saline or isotonic, normal saline, read-out: Solubility in Normal Saline (NS)",3350 µg/mL
same,solubility,"[15]; water, read-out: Solubility in Water",1260 µg/mL
same,IC50,[16],5.61 µM
same,IC50,[17],8.08 µM
same,IC50,[18],1260 nM

# — patent US20210246157A1, “CAMPTOTHECIN DERIVATIVES AND PREPARATION METHODS AND APPLICATIONS THEREOF” (priority 2018, published 2021)
